From patent US10744213B2, “Fluorescent compounds for imaging of blood vessels and blood flow, and an in vivo screen for pro- and anti-angiogenic agents” (COLOSSUS BIOPHARMA CONSULTANTS COMPANY, LIMITED, priority 2017, dated 2020)

Assays:
[1] = system: goldfish (Carassius auratus) blood serum; test: Native PAGE of blood serum stained with the fluorescent compound (UV, fluorescence); format: binding; settings: 25 μM stain
[2] = system: cow blood serum; test: as above; format: binding; settings: 25 μM stain
[3] = system: zebrafish blood vessels; test: Staining of zebrafish blood vessels; parameters: species or system zebrafish (Danio rerio); settings: in vivo
From the text: (§1) Another embodiment of the invention comprises contacting live zebrafish, wild type or not, at various development stages, with the fluorescent compounds. To achieve the contact, the fluorescent compounds can in general be formulated as a solution, in DMSO for instance, and added to the fish culture. […] The fluorescent compounds enter the zebrafish vascular system as a result of such treatment, causing the blood vessels to fluoresce upon excitation and the fluorescence image of the blood vessels and the motion of blood flow can be observed with a microscope. The images can also be recorded with an image capturing device such as a camera. […] Further advantage of the current invention, which is in significant contrast to the transgenic zebrafish models, resides in the fact that the fluorescent compounds are exogenously administered and can be allowed to clear out of the test animals when so desired (see Figure I), such as when further procedures are required with the test animals and the fluorescence may interfere. […]

[4] = Acute toxicity on zebrafish over a five-day regimen; parameters: species or system zebrafish (Danio rerio); settings: in vivo, other: added to the fish culture (immersion), calculated using the Benchmark Dose Software (BMDS)
[5] = system: zebrafish; format: in vivo, zebrafish (Danio rerio); settings: after staining at 10 μM for 1 hour, continuous culture in RO water
From the text: as §1

SMILES: CCOC(=O)c1cn(-c2ccccc2)nc1-c1ccccc1 [Ethyl 1,3-diphenyl-1H-pyrazole-4-carboxylate]
- Staining of serum bands on Native PAGE [1]: UV as well as matching blue fluorescence
- Staining of serum bands on Native PAGE [2]: UV as well as matching blue fluorescence

SMILES: CCOC(=O)c1ccc(C2CC(c3cc4cc(OC)ccc4oc3=O)=NN2c2ccc(C(=O)OCC)cc2)cc1 (centres unmarked) [Diethyl 4,4′-(3-(6-methoxy-2-oxo-2H-chromen-3-yl)-4,5-dihydro-1H-pyrazole-1,5-diyl)dibenzoate]
- Regular working concentration for staining zebrafish blood vessels [3]: 10 to 25 µM
- LC50 at 5 days [4]: 272 µM

SMILES: CCOC(=O)c1ccc(N2N=C(c3cc4cc(OC)ccc4oc3=O)CC2c2ccccc2)cc1 (centres unmarked) [Ethyl 4-(3-(6-methoxy-2-oxo-2H-chromen-3-yl)-5-phenyl-4,5-dihydro-1H-pyrazol-1-yl)benzoate]
- Clearance of the dye (fading of green fluorescence) [5]: incremental fading of green fluorescence over time within the first 6 hours
